From US8138158B2, “Compositions and methods for therapy for diseases characterized by defective chloride transport” (Children's Hospital & Research Center at Oakland, priority 1997, dated 2012)

Tests used:
Assay type in all cases: cell-based, human
Calu-3 monolayers [1] = experiment: Transepithelial short-circuit current (Isc) across unstimulated Calu-3 monolayers; details: for transepithelial chloride currents in unstimulated tissue: compound added to mucosal (or serosal) perfusion, L-ascorbic acid 100 μM
Protocol: Currents were recorded with a serosal-to-mucosal chloride gradient at 0 mV and pulses were obtained at 2 mV.
Ascorbic acid (100 μM) was added as indicated. For comparison, ascorbic acid-stimulated chloride current was subsequently stimulated by the cAMP elevating agonist forskolin (20 μM, serosal). The CFTR activator genistein (20 mM) was then added to the mucosal perfusion as indicated. […] Currents were recorded with a serosal-to-mucosal chloride gradient at 0 mV and pulses were obtained at 2 mV.
100 μM ascorbic acid and forskolin (fsk, 20 μM, serosal) were added as indicated. The CFTR activator kaempferol (20 μM) was subsequently added, as indicated. […] Currents were recorded with a serosal-to-mucosal chloride gradient at 0 mV and pulses were obtained at 2 mV.
This experiment was performed using unstimulated tissue.
Kinetic analysis is depicted on the right panel and estimated half maximal stimulatory dose was 11.7 μM. […]
For comparison, ascorbic acid-stimulated chloride currents were stimulated by the cAMP elevating agonist forskolin (20 μM, serosal).
Stimulated C1 currents returned to baseline after 5-15 min.

Calu-3 monolayers [2] = experiment: Transepithelial chloride currents in forskolin-prestimulated Calu-3 monolayers; details: prestimulated with 10 μM forskolin
Protocol: FIGS. 13A-13C illustrate the effect of additional representative flavonoids and isoflavonoids on chloride current in epithelial cells. FIG. 13A is a graph showing the stimulation of transepithelial chloride currents by reservatrol (100 μM), flavanone (100 μM), flavone (200 μM), apigenin (20 μM), apigenin 7-O-neohesperidoside (30 μM), kaempferol (20 μM), fisetin (100 μM), quercetin (30 μM), rutin (30 μM), genistein (30 μM), daidzein (50 μM), biochanin A (100 μM) and prunetin (100 μM) in Calu-3 monolayers. Experiments were performed in the presence of 10 μM forskolin. Stimulated currents are plotted relative to forskolin stimulated increase (forskolin stimulated currents are 100%). FIG. 13B is a recording showing the effect of 7,4′-dihydroxyflavone on chloride current in unstimulated tissue. […] Increasing concentrations of 7,4′-dihydroxyflavone (as indicated in μM) were added to mucosal side and dose-dependently stimulated chloride currents. Currents were recorded with a serosal-to-mucosal chloride gradient at 0 mV and pulses were obtained at 2 mV. FIG. 13C is a recording illustrating the effect of trimethoxy-apigenin. […] Increasing concentrations of trimethoxy-apigenin (as indicated in μM) were added to mucosal side and dose-dependently stimulated chloride currents. Experiment was performed on unstimulated tissue. Currents were recorded with a serosal-to-mucosal chloride gradient at 0 mV and pulses were obtained at 2 mV.
Airway epithelial cells were prestimulated with 10 μM forskolin. The percent increase in chloride current was then determined following treatment with a series of polyphenolic compounds. FIG. 13A summarizes the stimulatory effect of these compounds.

Calu-3 airway epithelia = experiment: Short-circuit current (transepithelial Cl secretion) across Calu-3 airway epithelia, Examples 12-13
Protocol: (§1) Short-circuit current measurement. Calu-3 or CF15 cells were grown as monolayers, mounted in Ussing chambers and short-circuit current (ISC) was recorded as described (Illek, B. & Fischer, H. (1998) Am. J. Physiol. 275, L902-L910). At 20-50 second intervals, transepithelial voltage was clamped from zero to 2 mV and the transepithelial resistance (Rte) was calculated. A serosa-to-mucosa-directed Cl gradient was applied. Serosal Ussing chamber solution contained (in mM): 120 NaCl, 20 NaHCO3, 5 KHCO3, 1.2 NaH2PO4, 5.6 glucose, 2.5 CaCl2, 1.2 MgCl2. In mucosal Ussing chamber solutions, all Cl salts were exchanged for gluconate salts.
Vitamin C activation of CFTR-mediated Cl secretion was studied in Calu-3 cells grown as epithelial monolayers (FIG. 21A). Exposure of the apical membrane to maximal concentrations of L-ascorbic acid stimulated transepithelial Cl currents (ISC) in a sustained fashion to 96±11 μA/cm^2 (n=22). Subsequent addition of forskolin further increased ISC to 141±33 μA/cm^2 (n=9, p=0.029). On average, Cl secretion was stimulated by ascorbate to 68% of the currents elicited by forskolin. The Cl channel blocker diphenylcarboxylate (DPC, 4 mM) was added as a measure for the transcellular Cl current decreasing ISC to 30±4 μA/cm^2. When Cl secretion was first stimulated with forskolin (to 106±23 μA/cm^2, n=4) ascorbate had no significant effect on Ise (at 100 μM: ΔICl=−1.5±3.5 μA/cm^2, n=4, not different from zero, one-sample t test). Half-maximal stimulatory constant averaged 36.5±2.9 μm as determined from transepithelial dose-response experiments.
Furthermore, the response to ascorbate in Na-containing medium was blunted in the presence of phloretin, a known inhibitor of the sodium-dependent vitamin C transporters SVCT1 and SVCT2 (Tsukaguchi, H., Tokui, T., Mackenzie, B., Berger, U. V., Chen, X. Z., Wang, Y., Brubaker, R. F. & Hediger, M. A. (1999) Nature 399, 70-75). […] Molecular expression of SVCT1 and SVCT2 transcripts in Calu-3 cells was verified using RT-PCR and DNA sequencing analysis. For comparison, human ciliated tracheal epithelial cultures (hTE) and a nasal cystic fibrosis airway cell line (CF15) were included. […] The recombinantly expressed SVCT2-EGFP fusion protein was targeted exclusively to the apical membrane pole of CF15 epithelia.

[3] = tested on: wildtype CFTR-corrected CF15 monolayers; experiment: Short-circuit current across wildtype CFTR-corrected CF15 monolayers; details: forskolin added on ascorbate-stimulated current
Protocol: Human airway cell culture. The human submucosal serous gland-like cell line Calu-3, the CF nasal epithelial cell line homozygous for ΔF508 CFTR (CF15) and human tracheal primary cultures (hTE) were cultured as described (Jefferson, D. M., Valentich, J. D., Marini, F. C., Grubman, S. A., Iannuzzi, M. C., Dorkin, H. L., Li, M., Klinger, K. W. & Welsh, M. J. (1990) Am. J. Physiol. 259, L496-L505. Sachs, L. A., Finkbeiner, W. E. & Widdicombe, J. H. (2003) In Vitro Cell Dev. Biol. Anim. 39, 56-62.). Wildtype CFTR-corrected CF15 cells were generated via adenovirus-mediated gene transfer. Growth media were nominally free of ascorbic acid (<10 μm, University Pathology Inc., Salt Lake City, Utah). For transepithelial measurements cells were grown on permeable filter inserts and used after 3 to 10 days.
as §1
The CF15 cell line was used to determine whether ascorbate-stimulated Cl currents were solely mediated by the CFTR Cl conductance. The CF15 cell line is characterized by the absence of functional CFTR in the apical plasma membrane but the presence of other non-CFTR Cl conductances (Jefferson, D. M., Valentich, J. D., Marini, F. C., Grubman, S. A., Iannuzzi, M. C., Dorkin, H. L., Li, M., Klinger, K. W. & Welsh, M. J. (1990) Am. J. Physiol. 259, L496-L505). A concentration of L-ascorbic acid that lay within the upper plateau of the dose response curve (500 μm) was applied and ascorbate-stimulated Cl currents in CF15 vs. wildtype CFTR-corrected CF15 monolayers was compared (FIG. 23A). […] The defective response to L-ascorbic acid was reversed in wildtype CFTR-corrected CF15 epithelia such that ISC responded promptly to L-ascorbic acid (ΔISC=7.5±0.5 μA/cm^2, n=6). The ascorbate-stimulated current was further activated by the cAMP agonist forskolin and total stimulated ISC averaged 12.1±1.1 μA/cm^2 (FIG. 4B). The ascorbate-stimulated Cl current reached 60±15% of the forskolin-stimulated current in CFTR-corrected CF15 monolayers, which was close to the corresponding findings in Calu-3 monolayers (68%, see FIG. 21A). The absence of ascorbate-stimulated Cl currents in CF15 monolayers supports the notion that non-CFTR Cl conductances were not activated by L-ascorbic acid.
In this example, chloride currents stimulated by L-ascorbate or D-ascorbate were measured in CF15 versus. wildtype CFTR-corrected CF15 monolayers. A concentration of L-ascorbate (1 mM) or D-isoascorbate (300 μm) that lay within the upper plateau of the dose-response curve was applied to cells and the resulting chloride currents stimulated in CF15 versus wildtype CFTR-corrected CF15 monolayers were measured (FIG. 25 A-H). All experiments were performed in the presence of the sodium channel blocker amiloride. […]

[4] = dehydroascorbic acid 10, 100 or 300 μM

Molecule: O=C1O[C@H](C(O)CO)C(=O)C1=O (stereo partly drawn) [dehydroascorbic acid, L-threo-2,3-Hexodiulosonic acid γ-lactone]
- transepithelial chloride currents in unstimulated tissue (Calu-3 monolayers [1]; [4]): effectively stimulated transepithelial chloride currents
- stimulated Cl currents returned to baseline after (Calu-3 monolayers [1]; [4]): 5 to 15 min

Molecule: O=c1cc(-c2ccccc2)oc2ccccc12 [flavone]
- chloride currents further stimulated to (forskolin stimulated currents are 100%) (Calu-3 monolayers [2]; compound at 200 μM): 128%

Molecule: O=C1CC(c2ccccc2)Oc2ccccc21 (stereo not drawn) [flavanone]
- chloride currents further stimulated to (forskolin stimulated currents are 100%) (Calu-3 monolayers [2]; compound at 100 μM): 140%

Molecule: O=C(CCc1ccc(O)cc1)c1c(O)cc(O)cc1O [phloretin, reference compound]
- response to ascorbate in presence of SVCT inhibitor (Calu-3 airway epithelia; Na-containing medium, pre-treatment with 200 μM phloretin): blunted

Molecule: COc1cc(O)c2c(=O)c(-c3ccc(O)cc3)coc2c1 [prunetin]
- chloride currents further stimulated to (forskolin stimulated currents are 100%) (Calu-3 monolayers [2]; compound at 100 μM): 161%

Molecule: fisetin
- chloride currents further stimulated to (forskolin stimulated currents are 100%) (Calu-3 monolayers [2]; compound at 100 μM): 108%

Molecule: Oc1ccc(/C=C/c2cc(O)cc(O)c2)cc1 [reservatrol, trans-3,5,4′-trihydroxystilbene]
- transepithelial chloride currents in unstimulated tissue (Calu-3 monolayers [1]; [4]): dose-dependently stimulated transepithelial chloride currents
- chloride currents further stimulated to (forskolin stimulated currents are 100%) (Calu-3 monolayers [2]; compound at 100 μM): 135%

Molecule: O=c1c(-c2ccc(O)cc2)coc2cc(O)ccc12 [daidzein]
- chloride currents further stimulated to (forskolin stimulated currents are 100%) (Calu-3 monolayers [2]; compound at 50 μM): 162%

Molecule: C[C@@H]1O[C@@H](O[C@H]2[C@H](Oc3cc(O)c4c(=O)cc(-c5ccc(O)cc5)oc4c3)O[C@H](CO)[C@@H](O)[C@@H]2O)[C@H](O)[C@H](O)[C@H]1O [apigenin 7-O-neohesperidoside]
- chloride currents further stimulated to (forskolin stimulated currents are 100%) (Calu-3 monolayers [2]; compound at 30 μM): 155%

Molecule: C[C@@H]1O[C@@H](OC[C@H]2O[C@@H](Oc3c(-c4ccc(O)c(O)c4)oc4cc(O)cc(O)c4c3=O)[C@H](O)[C@@H](O)[C@@H]2O)[C@H](O)[C@H](O)[C@H]1O [rutin]
- chloride currents further stimulated to (forskolin stimulated currents are 100%) (Calu-3 monolayers [2]; compound at 30 μM): 149%

Molecule: COc1ccc(-c2cc(=O)c3c(OC)cc(OC)cc3o2)cc1 [trimethoxy-apigenin]
- transepithelial chloride currents in unstimulated tissue (Calu-3 monolayers [1]; [4]): dose-dependently stimulated transepithelial C1 currents
- EC50 (Calu-3 monolayers [1]; unstimulated tissue, mucosal addition, kinetic analysis, read-out: estimated half maximal stimulatory dose): 11.7 µM

Molecule: C=C[C@@]1(C)CC(=O)[C@]2(O)[C@@]3(C)[C@@H](O)CCC(C)(C)[C@@H]3[C@H](O)[C@H](OC(C)=O)[C@@]2(C)O1 [forskolin, reference compound]
- total stimulated ISC [3]: 12.1±1.1 μA/cm^2
- Cl secretion first stimulated with forskolin to (Calu-3 airway epithelia; forskolin first, n=4): 106±23 μA/cm^2
- ISC further increased to (Calu-3 airway epithelia; subsequent addition of forskolin after L-ascorbic acid, n=9): 141±33 μA/cm^2

Molecule: O=c1cc(-c2ccc(O)cc2)oc2cc(O)ccc12 [7,4′-Dihydroxyflavone]
- transepithelial chloride currents in unstimulated tissue (Calu-3 monolayers [1]; [4]): dose-dependently stimulated transepithelial C1 currents
